Source: article PMC5085131, “Cyclic AMP efflux inhibitors as potential therapeutic agents for leukemia” (Oncotarget, 2016)

Legend:
[1] = test system: U937 cells; experiment: F-cAMP efflux assay in U937 cells (screen and dose response); format: cell-based, human; conditions: screen at 10 μM, 51 hits retested in dose-response
Procedure: Cells were loaded with F-cAMP as described. Briefly, cells were resuspended in a hypertonic solution containing 10% polyethylene glycol 1000, 0.5 M sucrose, and 250 μM F-cAMP in cRPMI without FBS, incubated 10 min at room temperature, washed, and then resuspended in hypotonic solution (60% cRPMI, 40% sterile water) for 2 min at room temperature to complete F-cAMP loading. Cells were resuspended in cRPMI and equilibrated for 2 h under normal culture conditions.
Samples were evaluated using Accuri C6 or BD FACScan flow cytometers (Becton Dickinson (BD)).
Liquid handling was accomplished with a Biomek FX Multichannel system (Beckman-Coulter, Fullerton, CA, USA) and/or Biotek Multiflo system (Winooski, VT, USA). F-cAMP-loaded U937 cells (2000/well) were seeded into 384-well polypropylene plates (Greiner Bio-One 784201, Monroe, NC, USA). Cells were treated with compounds (10 μM final concentration) from the Prestwick Chemical Library (Illkirch, France) or […] Collection (MicroSource, Gaylordsville, CT, USA) delivered by pintool (V&P Scientific, San Diego, CA), at a final DMSO concentration of 1%. Plates were foil-sealed with AlumaSeal 384™ (Excel Scientific, Victorville, CA, USA), and incubated inverted overnight. Sample plates were analyzed by CyAn flow cytometers (Beckman-Coulter) configured with HyperCyt high-throughput auto-sampler systems (IntelliCyt, Albuquerque, NM, USA) using 488 nm excitation to assess FL-1 (530/40) MFI levels.
Data were analyzed with HyperView software (IntelliCyt) and time-gated to determine data from each well. Wells with ≥ 50 events were evaluated for FL-1 MFI values. Samples with MFI values ≥ 2 standard deviations above the plate mean negative control values were considered “hit” compounds.
To validate sample data and decrease the number of false-positive hits, compounds were assayed in a high-throughput dose response assay. Plates were set up as in the HTS, with the exception that the plate formats contained 10-well dose responses for each hit compound, at final concentrations ranging from 30 μM to 4 nM.
The dose response data were normalized for percent response based on sample FL-1 MFI values in comparison to untreated F-cAMP-loaded cells kept at 4°C overnight or at time = 0, and were fitted by GraphPad Prism 5 software (GraphPad Software, La Jolla, CA, USA) for sigmoidal dose response with constrained hill slope = 1.

[2] = test system: U937 cells; experiment: CellTiter-Glo cell viability; format: cell-based; conditions: Homo sapiens, U-937; overnight, n = 8, ± SEM, fit top = 100, bottom = 0, hill slope = −1; read-out: Compound EC50, U937 (cell viability)
Procedure: (§1) Cell viability was determined with the CellTiter-Glo® Luminescent Cell Viability Assay (Promega). Greiner 655083 had 100 μL cRPMI +/− 4×10^4 cells/well, and dose response curves of compounds ranged from 100 μM to 1.53 nM (1% DMSO). Wells with DMSO-only served as negative controls. Samples were incubated overnight, and the assay was completed according to the manufacturer's protocol. Plates were analyzed using a Victor^3V™ 1420 Multilabel Counter (Perkin Elmer).

[3] = test system: RS4;11; experiment: CellTiter-Glo cell viability; format: cell-based; conditions: Homo sapiens, overnight, n = 6, ± SEM, read-out: Compound EC50, RS4;11 (cell viability)
Procedure: as §1

[4] = test system: MHH Call 3; experiment: CellTiter-Glo cell viability; format: cell-based; conditions: Homo sapiens; overnight, n = 6, ± SEM; read-out: Compound EC50, MHH Call 3 (cell viability)
Procedure: as §1

[5] = test system: 697; experiment: CellTiter-Glo cell viability; format: cell-based; conditions: Homo sapiens; overnight, n = 6, ± SEM; read-out: Compound EC50, 697 (cell viability)
Procedure: as §1

[6] = test system: Sup B15; experiment: CellTiter-Glo cell viability; format: cell-based; conditions: Homo sapiens, overnight, n = 6, ± SEM, read-out: Compound EC50, Sup B15 (cell viability)
Procedure: as §1

[7] = test system: Reh; experiment: CellTiter-Glo cell viability; format: cell-based; conditions: Homo sapiens, overnight, n = 6, ± SEM, read-out: Compound EC50, Reh (cell viability)
Procedure: as §1

[8] = test system: Nalm 6; experiment: CellTiter-Glo cell viability; format: cell-based; conditions: Homo sapiens, overnight, n = 6, ± SEM, read-out: Compound EC50, Nalm 6 (cell viability)
Procedure: as §1

[9] = test system: CREB (Ser133) / ATF-1 (Ser63) phosphorylation; experiment: Binding of anti-phospho-CREB/ATF-1 antibody in U937 cells (flow cytometry); format: cell-based, human; conditions: 1 hour, 20 μM
Procedure: Cells were suspended at 10^6 cells/ml in cRPMI and incubated for 1 hour at 37°C with 20 μM ICE compounds or forskolin (positive control). Negative control samples were treated with DMSO at equal volume. Cells were fixed with 20x volume of pre-warmed 1x solution BD Phosflow^TM Lyse/Fix Buffer (cat. 558049), incubated at 37°C for 10 minutes, permeabilized with BD Phosflow^TM Perm buffer II (cat. 558052), and incubated on ice for 30 minutes. Permeabilized cells were then washed and stained with BD Phosflow™ Alexa Fluor® 488 Mouse Anti-CREB (pS133) / ATF-1 (pS63) clone J151-21 (cat. 558435) according to the manufacturer's instructions.

[10] = design: method as in PMID 19505822; conditions: cited from earlier work
[11] = design: method as in PMID 19505822; conditions: cited from earlier work; remark: listed apart in the source

| SMILES | Outcome of screen for inhibitors of cAMP efflux after dose-response validation [1] | EC50 [2] [µM] | EC50 [3] [µM] | EC50 [4] [µM] | EC50 [5] [µM] | EC50 [6] [µM] | EC50 [7] [µM] | EC50 [8] [µM] | Binding of anti-CREB (pS133) / ATF-1 (pS63) specific antibodies [9] | water-solubility [10] | bioavailability [11] |
| --- | --- | --- | --- | --- | --- | --- | --- | --- | --- | --- | --- |
| O=C1C=C2C(=CCOC2O)O1 (stereo not drawn) [Patulin] | potentially active | 3.1 ± 2.22 | 1.01 ± 0.22 | 0.53 ± 0.17 | 0.13 ± 0.04 | 0.2 ± 0.12 | 0.33 ± 0.13 | 0.07 ± 0.01 |  |  |  |
| C[C@H]1COC2=C1C(=O)C(=O)c1c2ccc2c1CCCC2(C)C [Cryptotanshinone] | potentially active | 11.8 ± 6.78 | 8.36 ± 5.84 | 126 ± 35.9 | 67.1 ± 31.8 | 29.2 ± 7.58 | 105 ± 14.6 | 70.2 ± 29.9 |  |  |  |
| C=C1C(=O)O[C@H]2[C@H]1CC/C(C)=C/CC[C@@]1(C)O[C@@H]21 [Parthenolide] | potentially active | 2.86 ± 1.55 | 3.07 ± 1 | 1.97 ± 0.59 | 1.13 ± 0.31 | 1.54 ± 0.36 | 2.19 ± 1.34 | 0.72 ± 0.23 | comparable to the adenylate cyclase stimulator forskolin positive control | Poor | Poor |
| Oc1c(I)cc(Cl)c2cccnc12 [Clioquinol] | potentially active | 40.6 ± 10.8 | 64.4 ± 36.6 | 67.1 ± 22.9 | 18.6 ± 7.74 | 15.4 ± 3.51 | 21.1 ± 4.61 | 24.8 ± 12.1 | comparable to the adenylate cyclase stimulator forskolin positive control |  |  |
